Measurements reported in the supplement of paper PMC4862054.

Experiments:
Settings in all cases: 72 h
HDQ-P1 [1] = tested on: HDQ-P1
Method in brief: (§1)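 EC50 was fitted from dose-response curves and censored at the highest concentration tested. To build those curves, breast cancer cell lines (20 µl suspension) were seeded into 384-well plates containing compound at 5 concentrations in 10-fold steps over a compound-specific 10,000-fold range and incubated for 72 h. Readouts were CellTox Green fluorescence (485/520 nm) for cell death and then CellTiter-Glo luminescence for viability, with each plate normalised to 0.1 % DMSO and a positive kill control.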

MDA-MB-436 = tested on: MDA-MB-436
Method in brief: as §1

MDA-MB-468 = tested on: MDA-MB-468
Method in brief: as §1

HCC1937 = tested on: HCC1937
Method in brief: as §1

CAL-85-1 [2] = tested on: CAL-85-1
Method in brief: as §1

MFM-223 = tested on: MFM-223
Method in brief: as §1

BT-474 [3] = tested on: BT-474
Method in brief: as §1

BT-549 = tested on: BT-549
Method in brief: as §1

CAL-148 [4] = tested on: CAL-148
Method in brief: as §1

HCC1143 = tested on: HCC1143
Method in brief: as §1

CAL-120 = tested on: CAL-120
Method in brief: as §1

DU-4475 [5] = tested on: DU-4475
Method in brief: as §1

Hs578T = tested on: Hs578T
Method in brief: as §1

MCF-10A = tested on: MCF-10A
Method in brief: as §1

MDA-MB-453 [6] = tested on: MDA-MB-453
Method in brief: as §1

HDQ-P1 [7] = tested on: HDQ-P1; remark: listed apart in the source
Method in brief: (§2)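 Breast cancer cell lines in 20 µl suspension were seeded onto 384-well plates pre-loaded with compound dissolved in 5 µl medium, then incubated 72 h. For viability, 2.5 µl CellTiter-Blue was added for 2 h at 37 °C and fluorescence read at 560/590 nm. Each plate was normalised to vehicle and a positive kill control and checked by Z'-factor. EC50 comes from the fitted percent-inhibition dose-response curve, censored at the highest concentration; rows with zero drug sensitivity score were dropped.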

CAL-51 = tested on: CAL-51
Method in brief: as §2

CAL-85-1 [8] = tested on: CAL-85-1; remark: listed apart in the source
Method in brief: as §2

CAL-148 [9] = tested on: CAL-148; remark: listed apart in the source
Method in brief: as §2

DU-4475 [10] = tested on: DU-4475; remark: listed apart in the source
Method in brief: as §2

MDA-MB-453 [11] = tested on: MDA-MB-453; remark: listed apart in the source
Method in brief: as §2

BT-474 [12] = tested on: BT-474; remark: listed apart in the source
Method in brief: as §2

HCC1599 = tested on: HCC1599
Method in brief: as §1

Row | Structure (SMILES) | EC50, CellTox Green (HDQ-P1 [1]) | EC50, CellTox Green (MDA-MB-436) | EC50, CellTox Green (MDA-MB-468) | EC50, CellTox Green (HCC1937) | EC50, CellTox Green (CAL-85-1 [2]) | EC50, CellTox Green (MFM-223) | EC50, CellTox Green (BT-474 [3]) | EC50, CellTox Green (BT-549) | EC50, CellTox Green (CAL-148 [4]) | EC50, CellTox Green (HCC1143) | EC50, CellTox Green (CAL-120) | EC50, CellTox Green (DU-4475 [5]) | EC50, CellTox Green (Hs578T) | EC50, CellTox Green (MCF-10A) | EC50, CellTox Green (MDA-MB-453 [6]) | EC50, CellTiter-Blue viability (HDQ-P1 [7]) | EC50, CellTiter-Blue viability (CAL-51) | EC50, CellTiter-Blue viability (CAL-85-1 [8]) | EC50, CellTiter-Blue viability (CAL-148 [9]) | EC50, CellTiter-Blue viability (DU-4475 [10]) | EC50, CellTiter-Blue viability (MDA-MB-453 [11]) | EC50, CellTiter-Blue viability (BT-474 [12]) | EC50, CellTox Green (HCC1599)
1 | CC(C)C[C@H](NC(=O)[C@H](Cc1ccccc1)NC(=O)c1cnccn1)B(O)O [Bortezomib] | 15 nM | 32.4 nM | 1.94 nM | 11.3 nM | 5.02 nM | 13 nM | 32.8 nM | 49.3 nM | 17.2 nM | 165 nM | 43.8 nM | 229 nM | 11.7 nM | 210 nM | 156 nM | 5.29 nM | 38.9 nM | 7.76 nM | 24.7 nM | 18.6 nM | 6.36 nM | 7.19 nM | 
2 | COc1cccc2c1C(=O)c1c(O)c3c(c(O)c1C2=O)C[C@@](O)(C(C)=O)C[C@@H]3O[C@H]1C[C@H](N)[C@H](O)[C@H](C)O1 [Daunorubicin] |  | 953 nM | 100 nM |  |  |  |  |  |  |  |  |  |  |  |  | 338 nM | 59 nM | 290 nM | 66.1 nM | 56.4 nM | 465 nM | 160 nM | 
3 | Cn1c(=O)c(F)c(Nc2ccc(I)cc2F)c2c(=O)n(C[C@@H](O)CO)cnc21 [TAK-733] |  |  |  |  | 181 nM |  |  |  |  |  | > 1000 nM | 29.1 nM |  |  |  | 161 nM | 102 nM | 68.5 nM |  | 3.59 nM | 249 nM |  | 
4 | COC(=O)C[C@](O)(CCCC(C)(C)O)C(=O)O[C@@H]1C(OC)=C[C@]23CCCN2CCc2cc4c(cc2[C@H]13)OCO4 [Omacetaxine] | 689 nM | 7440 nM | 388 nM |  | 41.7 nM | 63.7 nM | 5890 nM | 260 nM | 2670 nM |  |  |  | 40.8 nM | 770 nM |  | 13.8 nM | 21.5 nM | 17.4 nM | 13.7 nM | 5.48 nM | 24.7 nM | 92.8 nM | 
5 | C#Cc1cccc(Nc2ncnc3cc(OC)c(OCCCCCCC(=O)NO)cc23)c1 [CUDC-101] |  | 792 nM | 775 nM |  | 208 nM | 1600 nM | 2720 nM |  | 1700 nM |  | 5100 nM |  | 6670 nM | 8030 nM | 271 nM | 213 nM | 3790 nM | 426 nM | 817 nM | 1130 nM | 168 nM | 474 nM | 
6 | Cc1cc(C(C)Nc2ccccc2)c2nc(N3CCOCC3)cc(=O)n2c1 (centres undefined) [TGX-221] | 1 nM |  |  |  |  |  |  |  |  |  |  |  |  |  |  |  |  |  |  |  |  |  | 
7 | CC(=O)O[C@H]1C(=O)[C@@]2(C)[C@H]([C@H](OC(=O)c3ccccc3)[C@]3(O)C[C@H](OC(=O)[C@H](O)[C@@H](NC(=O)c4ccccc4)c4ccccc4)C(C)=C1C3(C)C)[C@]1(OC(C)=O)CO[C@@H]1C[C@@H]2O [Paclitaxel] |  | 66.5 nM | 4.52 nM |  | 2.42 nM | 3.4 nM | 11.5 nM | 6.52 nM | 1.16 nM |  |  |  | 4.11 nM | 16.8 nM |  | 1.26 nM | 12.2 nM | 7.28 nM | 6.75 nM | 18.6 nM | 4.03 nM | 8.24 nM | 
8 | CN(c1ccccc1CNc1nc(Nc2ccc3c(c2)CC(=O)N3)ncc1C(F)(F)F)S(C)(=O)=O | 20.9 nM |  |  |  | 4490 nM |  |  | > 10000 nM |  | 72.4 nM |  |  | 1290 nM | 1730 nM |  |  |  |  |  |  |  |  | > 10000 nM
9 | COc1c(C)cnc(Cn2cnc3c(Cl)nc(N)nc32)c1C [BIIB021] | 1960 nM |  |  |  | 3950 nM |  | 1790 nM |  | 84.5 nM |  |  | 293 nM | 321 nM | 189 nM |  | 241 nM | 341 nM | 490 nM | 133 nM | 143 nM | 64 nM | 93.7 nM | 
10 | O=C(c1ccc(OCCN2CCCCC2)cc1)c1c(-c2ccc(O)cc2)sc2cc(O)ccc12 [Raloxifene] | > 10000 nM |  |  |  |  |  |  |  |  |  |  |  |  |  |  |  |  |  |  |  | 9230 nM |  | > 10000 nM
11 | O=c1[nH]cc(F)c(=O)[nH]1 [Fluorouracil] |  | 7050 nM |  |  |  |  |  |  |  |  |  |  |  |  |  |  | 5390 nM | 680 nM | 944 nM | 2570 nM | 3900 nM |  | 
12 | COc1ncc(-c2ccc3nccc(-c4ccnnc4)c3c2)cc1NS(=O)(=O)c1ccc(F)cc1F |  |  | 160 nM | 299 nM |  | 22.4 nM | 134 nM |  | 74.7 nM |  |  |  | 511 nM | 349 nM |  | 6.71 nM | 12.6 nM | 27.2 nM | 27.6 nM | 113 nM | 5.38 nM | 13.5 nM | 
13 | CS(=O)(=O)CCNCc1ccc(-c2ccc3ncnc(Nc4ccc(OCc5cccc(F)c5)c(Cl)c4)c3c2)o1 [Lapatinib] |  |  |  |  |  |  |  |  |  |  |  |  |  | 678 nM |  |  |  | 3740 nM |  |  | 75.1 nM | 137 nM | 
14 | Cn1cnc2c(F)c(Nc3ccc(Br)cc3F)c(C(=O)NOCCO)cc21 [MEK-162] | 123 nM |  |  |  |  |  |  |  |  |  |  | 508 nM |  |  |  |  |  |  |  | 38.9 nM |  |  | 
15 | FC(F)c1nc2ccccc2n1-c1nc(N2CCOCC2)nc(N2CCOCC2)n1 [ZSTK474] |  |  |  |  |  | 1780 nM | > 10000 nM |  |  |  |  |  |  |  |  |  |  |  |  |  |  |  | 
16 | C[C@@]1(C(=O)Nc2ccc(F)nc2)CCCN1c1nc(Nc2cc(C3CC3)n[nH]2)c2cccn2n1 | 5000 nM |  | 3.79 nM |  |  | 587 nM |  |  | > 10000 nM | 1350 nM | 4500 nM |  |  | 3230 nM |  | 293 nM | 1500 nM | 858 nM | 1170 nM | 1510 nM | 314 nM |  | 
17 | COC1=C2C[C@@H](C)C[C@H](OC)[C@H](O)[C@@H](C)/C=C(\C)[C@H](OC(N)=O)[C@@H](OC)/C=C\C=C(/C)C(=O)NC(=CC1=O)C2=O [Geldanamycin] |  |  | 59.8 nM | 2450 nM | 2570 nM | 8020 nM | 6830 nM |  |  |  |  | 4720 nM |  | 2370 nM |  | 81.4 nM | 535 nM | 270 nM | 223 nM | 137 nM | 96.5 nM | 62 nM | 
18 | CCS(=O)(=O)c1cccc(-c2cc(C(=O)NC3CCN(C)CC3)c(C)c3[nH]c4ncc(C)cc4c23)c1 [TAK-901] |  |  |  |  |  |  |  | 871 nM |  |  |  |  |  |  |  | 260 nM | 179 nM | 344 nM |  | 806 nM | 12.8 nM |  | 
19 | CCOc1cc2ncc(C#N)c(Nc3ccc(OCc4ccccn4)c(Cl)c3)c2cc1NC(=O)/C=C/CN(C)C [Neratinib] |  |  | 149 nM |  | 211 nM |  |  |  | 791 nM |  |  |  |  |  |  |  |  |  |  |  | 12.5 nM |  | 
20 | COc1ccc(C2=N[C@@H](c3ccc(Cl)cc3)[C@@H](c3ccc(Cl)cc3)N2C(=O)N2CCNC(=O)C2)c(OC(C)C)c1 [Nutlin-3] |  |  |  |  |  |  |  |  | 9050 nM |  |  |  |  |  |  |  | 2750 nM |  |  | 6310 nM |  |  | 
21 | O=c1[nH]c(=O)n([C@H]2C[C@H](O)[C@@H](CO)O2)cc1F [Floxuridine] | 3070 nM |  |  |  | 4650 nM |  |  |  |  |  |  |  |  |  |  |  | 46.9 nM | 66.3 nM | 19.8 nM |  | 5880 nM |  | 
